Measurements reported in patent publication US8735409B2, “Quinazoline derivatives” (priority 2009, dated 2014).

Assay: Stability in Human Liver Microsomes
Assay type: in vitro ADME
Conditions: pooled human liver microsomes 0.5 mg/mL protein, 1 mM NADPH, 37° C., N=1; for half-life: both sexes
Method: The liver microsomes stability of compounds of Examples 1-4 was compared with that of TOVOK, and the compound of Example 5 with CUDC-101.
The metabolic stability of compounds of the invention was tested using pooled liver microsomes prepared from mixed-gender humans, with 1 mM NADPH. The samples were analyzed using an LTQ-Orbitrap XL mass spectrometer. HRMS was used to determine the peak area response ratio (peak area corresponding to test compound or control divided by that of an analytical internal standard) without running a standard curve. HRMS scan was performed in an appropriate m/z range in order to detect all plausible metabolites
The assay was run with a single incubation (N=1). Incubated test compounds at 37° C. in buffer containing 0.5 mg/mL microsomal protein. Initiated the reaction by adding cofactors, sampling at 0, 10, 20, 30, and 60 minutes, Incubated positive control (5 μM testosterone) in parallel and sampling at 0, 10, and 30 minutes.
The control compound testosterone was run in parallel to verify the enzymatic activity of the microsomes. After the final time point, fluorimetry was used to confirm the addition of NADPH to the reaction mixture. T1/2 of control met the internal acceptance criteria.
• Liquid Chromatography • Column: Thermo BDS Hypersil C18 30×2.0 mm, 3 μm, with guard column • M.P. Buffer: 25 mM ammonium formate buffer, pH 3.5 • Aqueous Reservoir (A): 90% water, 10% buffer • Organic Reservoir (B): 90% acetonitrile, 10% buffer • Flow Rate: 300 μL/minute • Gradient Program:
• Total Run Time: 3.5 minutes • Autosampler: 10 μL Injection Volume • Autosampler Wash: water/methanol/2-propanol: 1/1/1; with 0.2% formic acid • Mass Spectrometer • Instrument: PE SCIEX API 3000 • Interface: Turbo Ionspray • Mode: Multiple Reaction Monitoring • Method: 3.5 minute duration

SMILES | half-life [h] | Percentage remaining 0 min [%] | Percentage remaining 10 min [%] | Percentage remaining 20 min [%] | Percentage remaining 30 min [%] | Percentage remaining 60 min [%] | Half life [h]
C#Cc1cccc(Nc2ncnc3cc(OC)c(OCCCCCCC(=O)NO)cc23)c1 [CUDC-101, reference compound] | 0.333 | 100 | 74 | 48 | 35 | 14 | 
[2H]C([2H])([2H])N(C/C=C/C(=O)Nc1cc2c(Nc3cccc(C#C)c3)ncnc2cc1O[C@H]1CCOC1)C([2H])([2H])[2H] [Example 2, (S,E)-4-(D6-dimethylamino)-N-(4-(3-ethynylphenylamino)-7-(tetrahydrofuran-3-yloxy)quinazolin-6-yl)but-2-enamide] |  | 100 | 95 | 87 | 80 | 67 | >1
CN(C)C/C=C/C(=O)Nc1cc2c(Nc3ccc(F)c(Cl)c3)ncnc2cc1O[C@H]1CCOC1 [TOVOK, reference compound] | > 1 | 100 | 95 | 85 | 75 | 60 | 
[2H]C([2H])([2H])N(C/C=C/C(=O)Nc1cc2c(Nc3ccc(F)c(Cl)c3)ncnc2cc1O[C@H]1CCOC1)C([2H])([2H])[2H] [Example 1, (S,E)-N-(4-(3-chloro-4-fluorophenylamino)-7-(tetrahydrofuran-3-yloxy)quinazolin-6-yl)-4-(D6-dimethylamino)but-2-enamide] |  | 100 | 97 | 90 | 85 | 75 | >1
[2H]C1(Oc2cc3ncnc(Nc4cccc(C#C)c4)c3cc2NC(=O)/C=C/CN(C)C)CCOC1 [Example 4, (E)-4-(dimethylamino)-N-(4-(3-ethynylphenylamino)-7-(3-D-tetrahydrofuran-3-yloxy)quinazolin-6-yl)but-2-enamide] |  | 100 | 94 | 87 | 79 | 70 | >1
[2H]C1(Oc2cc3ncnc(Nc4ccc(F)c(Cl)c4)c3cc2NC(=O)/C=C/CN(C)C)CCOC1 (stereo not drawn) [Example 3, (E)-N-(4-(3-chloro-4-fluorophenylamino)-7-((3-D)-tetrahydrofuran-3-yloxy)quinazolin-6-yl)-4-(dimethylamino)but-2-enamide] |  | 100 | 97 | 89 | 84 | 73 | >1
[2H]C([2H])([2H])Oc1cc2ncnc(Nc3cccc(C#C)c3)c2cc1OCCCCCCC(=O)NO [Example 5, 7-(4-(3-ethynylphenylamino)-7-(D3-methoxy)quinazolin-6-yloxy)-N-hydroxyheptanamide] | 0.467 | 100 | 85 | 68 | 48 | 25 | 
